# Reference: patent US6897316B2, “Substituted 2-phenyl-4-quinolone-3-carboxylic acid compounds and their use as antitumor agents” (China Medical University, priority 2003, dated 2005)
# Tests used:
# [1] = tested on: epidermoid carcinoma of the nasopharynx (KB) cell line; test: Activity against HTCL replication, KB; assay type: cell-based, human; details: mean ED50
# Procedure: (§1) Compounds were assayed for in vitro cytotoxicity in a panel of human tumor cell lines at the School of Pharmacy, University of North Carolina at Chapel Hill, according to procedures described previously [Lee, K. H., Lin, Y. M., Wu, T. S., Zhang, D. C., Yamagishi, T., Hayashi, T., Hall, I. H., Chang, J. J., Wu, R. Y., Yang, T. H. The cytotoxic principles of Prunella vulgaris, Psychotria serpens, and Hyptis capitata: Ursolic acid and related derivatives. Planta Med. 1988, 54, 308-11; Boyd, M. R. Status of the National Cancer Institute preclinical antitumor drug discovery screen: implications for selection of new agents for clinical trial. Devita, V. T., Jr. Hellman, S., Rosenberg, S. A., Eds, J. B. Cancer: Principles and Practice of Oncology Update, 1989, 3: pp1-12, Lippincoft: Philadephia; Monks, A., Scudiero, D., Skehan, P., Shoemaker, R., Paull, K., Vistica, D., Hose, C., Langley, J., Cronise, P., Vaigro-Wolff, A., Gray-Goodrich, M., Campbell, H., Mayo, J., Boyd, M. Feasibility of a high-flux anticancer drug screen using a diverse panel of cultured human tumor cell lines. J. Natl. Cancer Inst. 1991, 83, 757-66.] […]
# [2] = tested on: ileocecal carcinoma (HCT-8) cell line; test: Activity against HTCL replication, HCT-8; assay type: cell-based, human; details: mean ED50
# Procedure: as §1
structure (smiles),measurement,setting,value
"COc1ccc2[nH]c(-c3cccc(F)c3)c(C(=O)O)c(=O)c2c1 [IX-8, 3′-Fluoro-6-methoxy-2-phenyl-4-quinolone-3-carboxylic acid]",ED50 KB,[1],0.13 µg/mL
same,ED50 HCT-8,[2],0.14 µg/mL
